Measured values as given in patent US7495104B2, “Quinoline or quinazoline derivatives inhibiting auto-phosphorylation of fibroblast growth factor receptors” (Kirin Beer Kabushiki Kaisha, priority 2001, dated 2009).

Target: Bek (Homo sapiens, UniProt P21802)
Test: Inhibitory activity against Bek-autophosphorylation using ELISA method in OCUM-2MD3 cells
Type: cell-based
Conditions: 1 hr with compound, read-out: IC50 (concentration necessary for inhibiting 50% of Bek-phosphorylation)
Procedure, shortened: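 OCUM-2MD3 human scirrhous gastric cancer cells in 0.1% FCS were exposed to compound for 1 hr at 37° C, then lysed. Phospho-tyrosine proteins were captured with anti-phosphotyrosine antibody, probed with anti-Bek antibody and peroxidase read-out (A450). Positive control (1000 nM) set 0%, untreated 100%; IC50 from multi-level dilutions.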

Bek, sequence (P21802 431-767 limits assumed): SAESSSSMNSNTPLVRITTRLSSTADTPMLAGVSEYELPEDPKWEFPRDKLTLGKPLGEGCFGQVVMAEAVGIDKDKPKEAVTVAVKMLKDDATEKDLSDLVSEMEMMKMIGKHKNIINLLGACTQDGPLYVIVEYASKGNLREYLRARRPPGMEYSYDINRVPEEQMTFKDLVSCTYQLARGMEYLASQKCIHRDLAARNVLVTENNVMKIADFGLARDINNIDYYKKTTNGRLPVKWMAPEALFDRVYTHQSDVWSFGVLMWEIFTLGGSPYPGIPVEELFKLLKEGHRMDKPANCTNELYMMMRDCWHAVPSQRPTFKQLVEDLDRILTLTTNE

| SMILES | IC50 |
| --- | --- |
| CCCN1CCC(COc2cc3nccc(Oc4ccc(Nc5ccc(C(C)(C)C)cc5)cc4)c3cc2OC)CC1 [Compound 42, (4-Tert-butylphenyl)-{4-[6-methoxy-7-(1-propylpiperidin-4-ylmethoxy)quinolin-4-yloxy]phenyl}amine] | 399 nM |
| COc1cc2c(Oc3ccc(NC(=O)NCCC(C)(C)C)cc3)ccnc2cc1OCCCN1CCC(Cc2ccccc2)CC1 [Compound 247, 1-(4-{7-[3-(4-Benzyl-piperidin-1-yl)-propoxy]-6-methoxy-quinolin-4-yloxy}-phenyl)-3-(3,3-dimethyl-butyl)-urea] | 81.9 nM |
| CCC(CO)(CO)NCCOc1cc2nccc(Oc3ccc(Nc4ccc(C(C)(C)C)cc4)cc3)c2cc1OC [Compound 351, 2-(2-{4-[4-(4-Tert-butyl-phenylamino)-phenoxy]-6-methoxy-quinolin-7-yloxy}-ethylamino)-2-ethyl-propan-1,3-diol] | 232 nM |
| COc1cc2nccc(Oc3ccc(Nc4ccc(-c5ccccc5)cc4)cc3)c2cc1OC [Compound 3, Biphenyl-4-yl-[4-(6,7-dimethoxyquinolin-4-yloxy)phenyl]amine] | 4580 nM |
| COc1cc2c(Oc3ccc(NC(=O)NCCC(C)(C)C)c(Cl)c3)ccnc2cc1OCCN(CCO)CCO [Compound 176, 1-[4-(7-{2-[Bis-(2-hydroxy-ethyl)-amino]-ethoxy}-6-methoxy-quinolin-4-yloxy)-2-chloro-phenyl]-3-(3,3-dimethyl-butyl)-urea] | < 10 nM |
| COc1cc2c(Oc3ccc(NC(=O)NCCC(C)(C)C)cc3)ccnc2cc1OCCN1CCC(N2CCCC2)CC1 [Compound 124, 1-(3,3-Dimethyl-butyl)-3-(4-{6-methoxy-7-[2-(4-pyrrolidin-1-yl-piperidin-1-yl)-ethoxy]-quinolin-4-yloxy}-phenyl)-urea] | < 10 nM |
| COc1cc2c(Oc3ccc(Nc4ccc(C(C)(C)C)cc4)cc3F)ccnc2cc1OCCN1CCC(O)CC1 [Compound 284, 1-(2-{4-[4-(4-Tert-butyl-phenylamino)-2-fluoro-phenoxy]-6-methoxy-quinolin-7-yloxy}-ethyl)-piperidin-4-ol] | 247 nM |
| COc1cc2c(Oc3ccc(NC(=O)NCCC(C)(C)C)cc3F)ccnc2cc1OCCCN1CCOCC1 [Compound 326, 1-(3,3-Dimethyl-butyl)-3-{3-fluoro-4-[6-methoxy-7-(3-morpholin-4-yl-propoxy)-quinolin-4-yloxy]-phenyl}-urea] | < 10 nM |
| COc1cc2c(Oc3ccc(NC(=O)NCCC(C)(C)C)cc3)ccnc2cc1OCC(O)CN1CCC(N2CCCC2)CC1 (stereo not drawn) [Compound 262, 1-(3,3-Dimethyl-butyl)-3-(4-{7-[2-hydroxy-3-(4-pyrrolidin-1-yl-piperidin-1-yl)-propoxy]-6-methoxy-quinolin-4-yloxy}-phenyl)-urea] | < 10 nM |
| C=Cc1ccc(Nc2ccc(Oc3ccnc4cc(OC)c(OC)cc34)cc2)cc1 [Compound 2, [4-(6,7-Dimethoxyquinolin-4-yloxy)phenyl]-(4-vinylphenyl)amine] | 7940 nM |
| COc1cc2c(Oc3ccc(Nc4ccc(C(C)(C)C)cc4)cc3)ccnc2cc1OCC(O)CN1CCCCC1 (stereo not drawn) [Compound 62, 1-{4-[4-(4-Tert-butyl-phenylamino)phenoxy]-6-methoxyquinolin-7-yloxy}-3-piperidin-1-ylpropan-2-ol] | 249 nM |
| COc1cc2c(Oc3ccc(NC(=O)NCCC(C)(C)C)cc3)ccnc2cc1OCCCN1CCC(N2CCCC2)CC1 [Compound 249, 1-(3,3-Dimethyl-butyl)-3-(4-{6-methoxy-7-[3-(4-pyrrolidin-1-yl-piperidin-1-yl)-propoxy]-quinolin-4-yloxy}-phenyl)-urea] | < 10 nM |
| COc1cc2c(Oc3ccc(NC(=O)NCCC(C)(C)C)c(F)c3)ccnc2cc1OCC(O)CN1CCOCC1 (stereo not drawn) [Compound 209, 1-(3,3-Dimethyl-butyl)-3-{2-fluoro-4-[7-(2-hydroxy-3-morpholin-4-yl-propoxy)-6-methoxy-quinolin-4-yloxy]-phenyl}-urea] | < 10 nM |
| COc1cc2nccc(Oc3ccc(Oc4ccc(C(C)(C)C)cc4)cc3)c2cc1OC [Compound 30, 4-[4-(4-Tert-butylphenoxy)phenoxy]-6,7-dimethoxyquinoline] | 3260 nM |
| COc1cc2nccc(Oc3ccc(NC(=O)NCCC(C)(C)C)cc3)c2cc1OCC(O)CN1CCOCC1 (stereo not drawn) [Compound 225, 1-(3,3-Dimethyl-butyl)-3-{4-[6-(2-hydroxy-3-morpholin-4-yl-propoxy)-7-methoxy-quinolin-4-yloxy]-phenyl}-urea] | 19.9 nM |
| COc1cc2c(Oc3ccc(NC(=O)NCCC(C)(C)C)c(Cl)c3)ccnc2cc1OCCN1CCCCCC1 [Compound 185, 1-{4-[7-(2-Azepan-1-yl-ethoxy)-6-methoxy-quinolin-4-yloxy]-2-chloro-phenyl}-3-(3,3-dimethyl-butyl)-urea] | 54.8 nM |
| COc1cc2c(Oc3ccc(Nc4ccc(C(C)(C)C)cc4)cc3)ccnc2cc1OCCCN1CCC(CCO)CC1 [Compound 218, 2-[1-(3-{4-[4-(4-Tert-butyl-phenylamino)-phenoxy]-6-methoxy-quinolin-7-yloxy}-propyl)-piperidin-4-yl]-ethanol] | 96 nM |

| SMILES | IC50 |
| --- | --- |
| COc1cc2c(Oc3ccc(NC(=O)NCCC(C)(C)C)cc3Cl)ccnc2cc1OCCCN1CC(C)OC(C)C1 (stereo not drawn) [Compound 319, 1-(3-Chloro-4-{7-[3-(2,6-dimethyl-morpholin-4-yl)-propoxy]-6-methoxy-quinolin-4-yloxy}-phenyl)-3-(3,3-dimethyl-butyl)-urea] | 22 nM |
| COc1cc2c(Oc3ccc(Nc4ccc(C(C)(C)C)cc4)cc3)ccnc2cc1OCCNCC1CCCO1 (stereo not drawn) [Compound 347, N1-[4-(Tert-butyl)phenyl]-4-[(6-methoxy-7-{2-[(tetrahydro-2-furanylmethyl)amino]ethoxy}-4-quinolyl)oxy]aniline] | 354 nM |
| COc1cc2c(Oc3ccc(NC(=O)NCCC(C)(C)C)cc3)ccnc2cc1OCCNC1(CO)CCCC1 [Compound 359, 1-(3,3-Dimethyl-butyl)-3-(4-{7-[2-(1-hydroxymethyl-cyclopenthylamino)-ethoxy]-6-methoxy-quinolin-4-yloxy}-phenyl)-urea] | 254 nM |
| COc1cc2c(Oc3ccc(NC(=O)NCCC(C)(C)C)c(Cl)c3)ccnc2cc1OCCN1C[C@@H](C)O[C@@H](C)C1 [Compound 116, 1-(2-Chloro-4-{7-[2-(2,6-dimethyl-morpholin-4-yl)-ethoxy]-6-methoxy-quinolin-4-yloxy}-phenyl)-3-(3,3-dimethyl-butyl)-urea] | 14.4 nM |
| COc1cc2c(Oc3ccc(Nc4ccc(C(C)(C)C)cc4)cc3)ccnc2cc1OCCCN1CCOCC1 [Compound 24, (4-Tert-butylphenyl)-{4-[6-methoxy-7-(3-morpholin-4-ylpropoxy)quinolin-4-yloxy]phenyl}amine] | 183 nM |
| COc1cc2c(Oc3ccc(Nc4ccc(C(C)(C)C)cc4)cc3)ccnc2cc1OCCN(C)C [Compound 40, N1-[4-(Tert-butyl)phenyl]-4-({7-[2-(dimethylamino)ethoxy]-6-methoxy-4-quinolyl}oxy)aniline] | 924 nM |
| COc1cc2nccc(Oc3ccc(NC(=O)NCCC(C)(C)C)cc3F)c2cc1OCCCN1CC(C)OC(C)C1 (stereo not drawn) [Compound 231, 1-(3,3-Dimethyl-butyl)-3-(4-{6-[3-(2,6-dimethyl-morpholin-4-yl)-propoxy]-7-methoxy-quinolin-4-yloxy}-3-fluoro-phenyl)-urea] | 113 nM |
| COc1cc2c(Oc3ccc(Nc4ccc(C(C)(C)C)cc4)c(Cl)c3)ccnc2cc1OCCN(CCO)CCO [Compound 337, 2-[(2-{4-[4-(4-Tert-butyl-phenylamino)-3-chloro-phenoxy]-6-methoxy-quinolin-7-yloxy}-ethyl)-(2-hydroxy-ethyl)-amino]-ethanol] | 252 nM |
| COc1cc2c(Oc3ccc(NC(=O)NCCC(C)(C)C)c(F)c3)ccnc2cc1OCCCN1CC(C)OC(C)C1 (stereo not drawn) [Compound 325, 1-(3,3-Dimethyl-butyl)-3-(4-{7-[3-(2,6-dimethyl-morpholin-4-yl)-propoxy]-6-methoxy-quinolin-4-yloxy}-2-fluoro-phenyl)-urea] | 34.2 nM |
| COc1cc2nccc(Oc3ccc(NC(=O)NCCC(C)(C)C)cc3)c2cc1OCCN(C)C [Compound 222, 1-{4-[6-(2-Dimethylamino-ethoxy)-7-methoxy-quinolin-4-yloxy]-phenyl}-3-(3,3-dimethyl-butyl)-urea] | 24.3 nM |
| COc1cc2c(Oc3ccc(NC(=O)NCCC(C)(C)C)c(Cl)c3)ccnc2cc1OCCCN(CCO)CCO [Compound 184, 1-[4-(7-{3-[Bis-(2-hydroxy-ethyl)-amino]-propoxy}-6-methoxy-quinolin-4-yloxy)-2-chloro-phenyl]-3-(3,3-dimethyl-butyl)-urea] | 9.2 nM |
| COc1cc2c(Oc3ccc(NC(=O)NCCC(C)(C)C)c(Cl)c3)ccnc2cc1OCCC1CCNCC1 [Compound 202, 1-{2-Chloro-4-[6-methoxy-7-(2-piperidin-4-yl-ethoxy)-quinolin-4-yloxy]-phenyl}-3-(3,3-dimethyl-butyl)-urea] | 28.5 nM |
| CCN(CC)CC(O)COc1cc2nccc(Oc3ccc(NC(=O)NCCC(C)(C)C)c(Cl)c3)c2cc1OC (stereo not drawn) [Compound 191, 1-{2-Chloro-4-[7-(3-diethylamino-2-hydroxy-propoxy)-6-methoxy-quinolin-4-yloxy]-phenyl}-3-(3,3-dimethyl-butyl)-urea] | 10.6 nM |
| COc1cc2nccc(Oc3ccc(Nc4ccc(C(C)(C)C)cc4)c(C)c3)c2cc1OC [Compound 13, (4-Tert-butylphenyl)-[4-(6,7-dimethoxyquinolin-4-yloxy)-2-methylphenyl]amine] | 279 nM |
| COc1cc2c(Oc3ccc(Nc4ccc(C(C)(C)C)cc4)cc3)ccnc2cc1OCCCN(C)CCO [Compound 52, 2-[(3-{4-[4-(4-Tert-butylphenylamino)phenoxy]-6-methoxy-quinolin-7-yloxy}propyl)methylamino]ethanol] | 33 nM |
| COc1cc2c(Oc3ccc(Nc4ccc(C(C)(C)C)cc4)cc3)ccnc2cc1OCCN1CCC(N2CCCCC2)CC1 [Compound 242, {4-[7-(2-[1,4′]Bipiperidineyl-1′-yl-ethoxy)-6-methoxy-quinolin-4-yloxy]-phenyl}-(4-tert-butyl-phenyl)-amine] | 401 nM |
